DBAASP
Values after ≈ are worked out from the molar mass of the structure shown.

Assays:
Experiment in all cases: ≥ marks a high value that may be exact or a test limit, other limits are often not marked, values filed in µg/mL are converted to µM
[1] = system: Malassezia furfur KCTC 7744
[2] = system: Pseudomonas aeruginosa OT97
Escherichia coli D21 = system: Escherichia coli D21
[3] = system: Staphylococcus aureus Cowan 1
[4] = system: Trichosporon beigelii KCTC 7707
[5] = system: Staphylococcus aureus JC-1
[6] = system: Shigella flexneri ATCC 203
Micrococcus luteus Ml11 = system: Micrococcus luteus Ml11
[7] = system: Proteus vulgaris OX19 ATCC 6380
Bacillus megaterium Bm11 = system: Bacillus megaterium Bm11
[8] = system: Candida albicans ATCC 90028
[9] = system: Trichophyton rubrum KCTC 6345
[10] = system: Bacillus subtilis ATCC 6633
[11] = system: Staphylococcus aureus P1386
[12] = system: Enterococcus faecalis P675
[13] = system: Staphylococcus aureus P838
[14] = system: Staphylococcus aureus P1369
Escherichia coli AB94012 = system: Escherichia coli AB94012
[15] = system: Staphylococcus aureus P1374
[16] = system: Staphylococcus aureus AB94004
[17] = system: Pseudomonas aeruginosa AB93066
[18] = system: Micrococcus luteus AB93113
[19] = system: Bacillus thuringiensis AB92037
[20] = system: Staphylococcus aureus P1381
[21] = system: Bacillus subtilis AB91021
[22] = system: Micrococcus luteus ATCC 9341
Leuconostoc lactis = system: Leuconostoc lactis
[23] = system: Staphylococcus aureus ATCC 29213
[24] = system: Staphylococcus epidermidis ATCC 14990
Bacillus cereus = system: Bacillus cereus
[25] = system: Enterococcus faecalis ATCC 29212
Streptococcus uberis = system: Streptococcus uberis
Listeria innocua = system: Listeria innocua
[26] = system: Bacillus anthracis Sterne 34F2
Escherichia coli W3110 = system: Escherichia coli W3110
[27] = system: Staphylococcus aureus UL12
[28] = system: Bacillus subtilis ATCC 9372
[29] = system: Burkholderia thailandensis
Staphylococcus aureus = system: Staphylococcus aureus
Escherichia coli = system: Escherichia coli
Bacillus anthracis = system: Bacillus anthracis

Q: Which results are given for CC[C@H](C)[C@H](NC(=O)[C@H](CCCCN)NC(=O)[C@@H](NC(=O)[C@@H](NC(=O)[C@H](CCC(N)=O)NC(=O)CNC(=O)[C@H](Cc1cnc[nH]1)NC(=O)[C@H](CCC(N)=O)NC(=O)[C@H](CC(N)=O)NC(=O)[C@H](CCC(N)=O)NC(=O)[C@@H](NC(=O)[C@H](CCCCN)NC(=O)[C@@H](N)Cc1ccccc1)C(C)C)C(C)C)C(C)C)C(=O)N[C@@H](Cc1ccccc1)C(=O)N[C@@H](Cc1cnc[nH]1)C(=O)N[C@@H](Cc1cnc[nH]1)C(=O)O [FKVQNQHGQVVKIFHH]?
A: MIC [1]: 12.5 µM (≈ 24.3 µg/mL); MIC [2]: ≥ 617 µM; MIC (Escherichia coli D21): ≥ 410 µM; MIC [3]: ≥ 1000 µM; MIC [4]: 6.3 µM (≈ 12.3 µg/mL); MIC [5]: ≥ 94 µM; MIC [6]: ≥ 205 µM; MIC (Micrococcus luteus Ml11): 23 µM (≈ 44.8 µg/mL); MIC [7]: ≥ 1000 µM; MIC (Bacillus megaterium Bm11): 1.95 µM (≈ 3.8 µg/mL); MIC [8]: 6.3 µM (≈ 12.3 µg/mL); MIC [9]: 25 µM (≈ 48.7 µg/mL); MIC [10]: 20 µM (≈ 38.9 µg/mL)

Q: Which results are given for CC(C)C[C@H](NC(=O)[C@H](CO)NC(=O)CNC(=O)[C@H](Cc1c[nH]c2ccccc12)NC(=O)[C@H](Cc1ccccc1)NC(=O)CN)C(=O)N[C@@H](Cc1c[nH]c2ccccc12)C(=O)N[C@@H](CCC(=O)O)C(=O)NCC(=O)N[C@H](C(=O)N[C@@H](CCCCN)C(=O)N[C@@H](CO)C(=O)N[C@H](C(=O)N[C@H](C(N)=O)C(C)C)C(C)C)C(C)C [GFWGSLWEGVKSVV]?
A: MIC [11]: ≥ 161 µM; MIC [12]: ≥ 32.2 µM; MIC [13]: ≥ 32.2 µM; MIC [14]: ≥ 80.6 µM; MIC (Escherichia coli AB94012): ≥ 64.5 µM; MIC [15]: ≥ 129 µM; MIC [16]: 8.06 µM (≈ 12.5 µg/mL); MIC [17]: ≥ 64.5 µM; MIC [18]: ≥ 64.5 µM; MIC [19]: ≥ 64.5 µM; MIC [20]: ≥ 322 µM; MIC [21]: ≥ 64.5 µM

Q: With CC[C@H](C)[C@H](N)C(=O)N[C@H](C(=O)NCC(=O)N[C@@H](Cc1cnc[nH]1)C(=O)N[C@@H](CC(C)C)C(=O)N[C@H](C(=O)N[C@@H](CCCCN)C(=O)N[C@H](C(=O)N[C@@H](C)C(=O)N[C@@H](CC(C)C)C(=O)NCC(=O)N[C@@H](CCSC)C(=O)N[C@@H](CC(C)C)C(=O)NCC(=O)N[C@@H](CC(C)C)C(N)=O)[C@@H](C)O)[C@@H](C)CC)[C@@H](C)CC [IIGHLIKTALGMLGL] as the molecule, how does the MIC [22] read?
A: Its MIC is 25 µM (≈ 38.7 µg/mL).

Q: And the MIC (Leuconostoc lactis)?
A: Its MIC is 12 µM (≈ 18.6 µg/mL).

Q: And the MIC [23]?
A: Its MIC is 12 µM (≈ 18.6 µg/mL).

Q: And the MIC [24]?
A: Its MIC is 25 µM (≈ 38.7 µg/mL).

Q: What about the MIC (Bacillus cereus) of the same molecule?
A: The MIC was 25 µM (≈ 38.7 µg/mL).

Q: What about the MIC [25] of the same molecule?
A: Its MIC is 100 µM (≈ 155 µg/mL).

Q: And the MIC (Streptococcus uberis)?
A: Its MIC is 25 µM (≈ 38.7 µg/mL).

Q: And the MIC (Listeria innocua)?
A: Its MIC is at least 50 µM.

Q: With CC[C@H](C)[C@H](N)C(=O)N[C@@H](CC(C)C)C(=O)NCC(=O)N1CCC[C@H]1C(=O)N[C@H](C(=O)N[C@@H](CC(C)C)C(=O)NCC(=O)N[C@@H](CC(C)C)C(=O)N[C@H](C(=O)N[C@@H](CO)C(=O)N[C@@H](CC(=O)O)C(=O)N[C@H](C(=O)N[C@@H](CC(C)C)C(=O)N[C@@H](CC(=O)O)C(=O)N[C@@H](CC(=O)O)C(=O)N[C@H](C(=O)N[C@@H](CC(C)C)C(=O)NCC(=O)N[C@H](C(=O)N[C@@H](CC(C)C)C(=O)O)[C@@H](C)CC)C(C)C)[C@@H](C)O)C(C)C)C(C)C [ILGPVLGLVSDTLDDVLGIL] as the molecule, how does the MIC [26] read?
A: The MIC was at least 100 µM.

Q: What about the MIC (Escherichia coli W3110) of the same molecule?
A: The MIC was at least 180 µM.

Q: What about the MIC [27] of the same molecule?
A: The MIC was at least 180 µM.

Q: What about the MIC [28] of the same molecule?
A: The MIC was at least 50 µM.

Q: What about the MIC [29] of the same molecule?
A: Its MIC is at least 50 µM.

Q: What does the source list for CC[C@H](C)[C@H](NC(=O)[C@H](CC(C)C)NC(=O)[C@H](C)NC(=O)[C@@H]1CCCN1C(=O)[C@H](Cc1ccccc1)NC(=O)[C@@H](NC(=O)[C@H](CCCCN)NC(=O)[C@H](CO)NC(=O)[C@H](C)NC(=O)[C@@H](NC(=O)[C@H](CCCN=C(N)N)NC(=O)[C@H](Cc1ccccc1)NC(=O)[C@@H](NC(=O)[C@@H](NC(=O)[C@@H]1CCCN1C(=O)[C@@H](N)CC(C)C)C(C)C)C(C)C)C(C)C)C(C)C)C(=O)N[C@@H](CO)C(=O)N[C@@H](CCCCN)C(=O)N[C@@H](CC(C)C)C(=O)N[C@H](C(=O)O)[C@@H](C)O [LPVVFRVASKVFPALISKLT]?
A: MIC (Staphylococcus aureus): 117 µM (≈ 256 µg/mL); MIC (Bacillus cereus): ≥ 117 µM; MIC (Escherichia coli): > 117 µM; MIC (Bacillus anthracis): ≥ 58.6 µM
